Experimental data reported in patent US20250059198A1, “BRM DEGRADING COMPOUNDS AND ASSOCIATED METHODS OF USE” (Arvinas Operations, Inc., priority 2021, published 2025).

Biological target: T1, BRM (Homo sapiens, UniProt P51531)
T1 construct: Western Blot Screen of BRM Degradation in SW1573 Cells; endogenous in cells; host or cells: SW1573 cells
Test: BRM degradation (Dmax and DC50) in SW1573 cells, Western blot screen / In-Cell Western screen
Type: cell-based
Conditions: overnight (18-20 hours) treatment; for Dmax: read-out: Dmax (%)** (% degraded)
How it was run: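 SW1573 cells were treated with compound for 18–20 h (final 0.1% DMSO). BRM was quantified either by Western blot of RIPA lysates or by fixed-cell In-Cell Western (LI-COR, 800/680 nm), each normalised to alpha-tubulin, giving Dmax and DC50.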

T1 sequence (P51531 whole entry): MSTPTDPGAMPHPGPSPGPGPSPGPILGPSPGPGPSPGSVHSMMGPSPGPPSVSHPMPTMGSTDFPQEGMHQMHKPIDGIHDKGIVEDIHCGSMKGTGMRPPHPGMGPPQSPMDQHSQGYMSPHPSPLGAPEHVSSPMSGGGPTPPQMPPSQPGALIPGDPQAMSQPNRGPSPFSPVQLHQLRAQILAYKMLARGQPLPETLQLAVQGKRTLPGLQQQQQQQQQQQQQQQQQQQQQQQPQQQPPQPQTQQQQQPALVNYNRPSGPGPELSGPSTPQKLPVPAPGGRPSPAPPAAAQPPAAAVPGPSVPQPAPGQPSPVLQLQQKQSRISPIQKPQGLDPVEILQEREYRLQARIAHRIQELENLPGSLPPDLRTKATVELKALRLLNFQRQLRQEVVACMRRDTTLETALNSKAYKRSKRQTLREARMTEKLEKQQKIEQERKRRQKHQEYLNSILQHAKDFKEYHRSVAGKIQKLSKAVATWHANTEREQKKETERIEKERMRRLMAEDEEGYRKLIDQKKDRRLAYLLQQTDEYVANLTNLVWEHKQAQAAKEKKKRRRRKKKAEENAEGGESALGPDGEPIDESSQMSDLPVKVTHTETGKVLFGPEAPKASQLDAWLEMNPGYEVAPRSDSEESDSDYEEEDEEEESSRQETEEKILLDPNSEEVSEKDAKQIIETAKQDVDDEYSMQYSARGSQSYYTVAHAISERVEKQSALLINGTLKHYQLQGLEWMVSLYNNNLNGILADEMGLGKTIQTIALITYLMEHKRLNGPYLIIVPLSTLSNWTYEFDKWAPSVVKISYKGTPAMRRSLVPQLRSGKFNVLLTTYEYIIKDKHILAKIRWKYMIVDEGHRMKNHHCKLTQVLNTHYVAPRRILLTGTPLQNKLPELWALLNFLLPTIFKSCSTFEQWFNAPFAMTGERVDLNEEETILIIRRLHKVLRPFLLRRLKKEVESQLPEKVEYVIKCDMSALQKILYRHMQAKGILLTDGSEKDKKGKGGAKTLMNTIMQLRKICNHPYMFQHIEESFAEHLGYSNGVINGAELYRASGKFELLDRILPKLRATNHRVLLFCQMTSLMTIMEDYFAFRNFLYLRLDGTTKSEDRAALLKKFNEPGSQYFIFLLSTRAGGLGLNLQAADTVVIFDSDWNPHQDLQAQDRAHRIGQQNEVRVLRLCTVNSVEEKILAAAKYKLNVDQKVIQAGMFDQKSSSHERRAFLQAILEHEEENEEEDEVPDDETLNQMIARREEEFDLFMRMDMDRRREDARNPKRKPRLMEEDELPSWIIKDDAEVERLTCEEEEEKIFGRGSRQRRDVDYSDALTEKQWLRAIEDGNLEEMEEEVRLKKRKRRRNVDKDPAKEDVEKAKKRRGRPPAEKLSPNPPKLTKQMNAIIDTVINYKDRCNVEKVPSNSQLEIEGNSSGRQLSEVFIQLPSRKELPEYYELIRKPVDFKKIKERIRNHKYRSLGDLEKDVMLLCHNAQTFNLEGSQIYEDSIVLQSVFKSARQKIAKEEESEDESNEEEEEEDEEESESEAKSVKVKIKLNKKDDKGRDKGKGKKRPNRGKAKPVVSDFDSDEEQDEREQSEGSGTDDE

| SMILES | DC50 | Dmax |
| --- | --- | --- |
| Cc1ncsc1-c1ccc([C@H](C)NC(=O)[C@@H]2C[C@@H](O)CN2C(=O)[C@@H](c2cc(N3CCC(CN4CCC5(CC4)CC(N4CCO[C@@H]([C@@H](C)n6cc(C#Cc7cc(-c8ccccc8O)nnc7N)cn6)C4)C5)CC3)no2)C(C)C)cc1 [Compound 99, (2S,4R)-1-[(2R)-2-{3-[4-({2-[(2R)-2-[(1R)-1-(4-{2-[3-amino-6-(2-hydroxyphenyl)pyridazin-4-yl]ethynyl}-1H-pyrazol-1-yl)ethyl]morpholin-4-yl]-7-azaspiro[3.5]nonan-7-yl}methyl)piperidin-1-yl]-1,2-oxazol-5-yl}-3-methylbutanoyl]-4-hydroxy-N-[(1S)-1-[4-(4-methyl-1,3-thiazol-5-yl)phenyl]ethyl]pyrrolidine-2-carboxamide] | < 2.5 nM | > 75% |
| Cc1ncsc1-c1ccc([C@H](C)NC(=O)[C@@H]2C[C@@H](O)CN2C(=O)[C@@H](c2cc(N3CCC(CN4CCC5(CC4)CC(N4CCO[C@@H](C(=O)N6C7CCC6CN(c6cc(-c8ccccc8O)nnc6N)C7)C4)C5)CC3)no2)C(C)C)cc1 [Compound 62, (2S,4R)-1-[(2R)-2-{3-[4-({2-[(2R)-2-{3-[3-amino-6-(2-hydroxyphenyl)pyridazin-4-yl]-3,8-diazabicyclo[3.2.1]octane-8-carbonyl}morpholin-4-yl]-7-azaspiro[3.5]nonan-7-yl}methyl)piperidin-1-yl]-1,2-oxazol-5-yl}-3-methylbutanoyl]-4-hydroxy-N-[(1S)-1-[4-(4-methyl-1,3-thiazol-5-yl)phenyl]ethyl]pyrrolidine-2-carboxamide] | < 2.5 nM | > 75% |
| Cc1ncsc1-c1ccc([C@H](C)NC(=O)[C@@H]2C[C@@H](O)CN2C(=O)[C@H](c2cc(O[C@H]3C[C@H](CN4CCC(O[C@H]5C[C@H](N6CCOC7(CCN(c8cc(-c9ccccc9O)nnc8N)CC7)C6)C5)CC4)C3)no2)C(C)C)cc1 [Compound 67, (2S,4R)-4-hydroxy-N-[(1S)-1-[4-(4-methyl-1,3-thiazol-5-yl)phenyl]ethyl]-1-[(2S)-3-methyl-2-{3-[(1r,3r)-3-({4-[(1r,3r)-3-{9-[3-amino-6-(2-hydroxyphenyl)pyridazin-4-yl]-1-oxa-4,9-diazaspiro[5.5]undecan-4-yl}cyclobutoxy]piperidin-1-yl}methyl)cyclobutoxy]-1,2-oxazol-5-yl}butanoyl]pyrrolidine-2-carboxamide] | 10 to 30 nM | > 75% |
| Cc1ncsc1-c1ccc([C@H](C)NC(=O)[C@@H]2C[C@@H](O)CN2C(=O)[C@@H](c2cc(N3CCC(CN4CCC5(CC4)CC(N4CCC(F)(F)C(CN6C7CCC6CN(c6cc(-c8ccccc8O)nnc6N)C7)C4)C5)CC3)no2)C(C)C)cc1 (stereo partly drawn) [Compound 120, (2S,4R)-1-[(2R)-2-{3-[4-({2-[3-({3-[3-amino-6-(2-hydroxyphenyl)pyridazin-4-yl]-3,8-diazabicyclo[3.2.1]octan-8-yl}methyl)-4,4-difluoropiperidin-1-yl]-7-azaspiro[3.5]nonan-7-yl}methyl)piperidin-1-yl]-1,2-oxazol-5-yl}-3-methylbutanoyl]-4-hydroxy-N-[(1S)-1-[4-(4-methyl-1,3-thiazol-5-yl)phenyl]ethyl]pyrrolidine-2-carboxamide] | < 2.5 nM | > 75% |
| Cc1ncsc1-c1ccc([C@H](C)NC(=O)[C@@H]2C[C@@H](O)CN2C(=O)[C@@H](c2cc(N3CCN(C(=O)N4CC(Oc5cc(N6C7CCC6CN(c6cc(-c8ccccc8O)nnc6N)C7)ccn5)C4)CC3)no2)C(C)C)cc1 [Compound 129, (2S,4R)-1-[(2R)-2-[3-(4-{3-[(4-{3-[3-amino-6-(2-hydroxyphenyl)pyridazin-4-yl]-3,8-diazabicyclo[3.2.1]octan-8-yl}pyridin-2-yl)oxy]azetidine-1-carbonyl}piperazin-1-yl)-1,2-oxazol-5-yl]-3-methylbutanoyl]-4-hydroxy-N-[(1S)-1-[4-(4-methyl-1,3-thiazol-5-yl)phenyl]ethyl]pyrrolidine-2-carboxamide] | 2.5 to 10 nM | > 75% |
| Cc1ncsc1-c1ccc([C@H](C)NC(=O)C2C[C@@H](O)CN2C(=O)[C@@H](c2cc(N3CCC(CN4CC[C@@H](Oc5cc(N6C7CCC6CN(c6cc(-c8ccccc8O)nnc6N)C7)ccn5)[C@@H](F)C4)CC3)no2)C(C)C)cc1 (stereo in doubt) [Compound 49, (2S,4R)-1-[(2R)-2-[3-(4-{[(3S,4R)-4-[(4-{3-[3-amino-6-(2-hydroxyphenyl)pyridazin-4-yl]-3,8-diazabicyclo[3.2.1]octan-8-yl}pyridin-2-yl)oxy]-3-fluoropiperidin-1-yl]methyl}piperidin-1-yl)-1,2-oxazol-5-yl]-3-methylbutanoyl]-4-hydroxy-N-[(1S)-1-[4-(4-methyl-1,3-thiazol-5-yl)phenyl]ethyl]pyrrolidine-2-carboxamide] | < 2.5 nM | > 75% |
| Cc1nccn1-c1ccc([C@H](C)NC(=O)[C@@H]2C[C@@H](O)CN2C(=O)[C@H](c2cc(N3CCC(CN4CCC(O[C@H]5C[C@H](N6CCC(C(C)n7cc(C#Cc8cc(-c9ccccc9O)nnc8N)cn7)CC6)C5)CC4)CC3)no2)C(C)C)cc1 (stereo partly drawn) [Compound 90, (2S,4R)-4-hydroxy-N-[(1S)-1-[4-(2-methyl-1H-imidazol-1-yl)phenyl]ethyl]-1-[(2S)-3-methyl-2-{3-[4-({4-[(1r,3r)-3-{4-[1-(4-{2-[3-amino-6-(2-hydroxyphenyl)pyridazin-4-yl]ethynyl}-1H-pyrazol-1-yl)ethyl]piperidin-1-yl}cyclobutoxy]piperidin-1-yl}methyl)piperidin-1-yl]-1,2-oxazol-5-yl}butanoyl]pyrrolidine-2-carboxamide] | ≥ 30 nM |  |
| Cc1ncsc1-c1ccc([C@H](C)NC(=O)[C@@H]2C[C@@H](O)CN2C(=O)[C@@H](c2cc(N3CCC(CN4CC[C@H](OC(=O)N5CCN(c6cc(-c7ccccc7O)nnc6N)CC5)[C@@H](F)C4)CC3)no2)C(C)C)cc1 [Compound 104, (3S,4S)-3-fluoro-1-[(1-{5-[(2R)-1-[(2S,4R)-4-hydroxy-2-{[(1S)-1-[4-(4-methyl-1,3-thiazol-5-yl)phenyl]ethyl]carbamoyl}pyrrolidin-1-yl]-3-methyl-1-oxobutan-2-yl]-1,2-oxazol-3-yl}piperidin-4-yl)methyl]piperidin-4-yl 4-[3-amino-6-(2-hydroxyphenyl)pyridazin-4-yl]piperazine-1-carboxylate] | < 2.5 nM | > 75% |
| Cc1ncsc1-c1ccc([C@H](C)NC(=O)[C@@H]2C[C@@H](O)CN2C(=O)[C@@H](c2cc(N3CCC(CN4CCC(O[C@H]5C[C@H](N6CCC(C(C)(C)N7C8CCC7CN(c7cc(-c9ccccc9O)nnc7N)C8)CC6)C5)CC4)CC3)no2)C(C)C)cc1 [Compound 22, (2S,4R)-4-hydroxy-N-[(1S)-1-[4-(4-methyl-1,3-thiazol-5-yl)phenyl]ethyl]-1-[(2R)-3-methyl-2-{3-[4-({4-[(1r,3r)-3-[4-(2-{3-[3-amino-6-(2-hydroxyphenyl)pyridazin-4-yl]-3,8-diazabicyclo[3.2.1]octan-8-yl}propan-2-yl)piperidin-1-yl]cyclobutoxy]piperidin-1-yl}methyl)piperidin-1-yl]-1,2-oxazol-5-yl}butanoyl]pyrrolidine-2-carboxamide] | < 2.5 nM | > 75% |
| CC(C)[C@@H](C(=O)N1C[C@H](O)C[C@H]1C(=O)N[C@@H](C)c1ccc(-c2scnc2C#CCOCCOCCOCCOc2cc(N3C4CCC3CN(c3cc(-c5ccccc5O)nnc3N)C4)ccn2)cc1)N1Cc2ccccc2C1=O [Compound 72, (2S,4R)-N-[(1S)-1-[4-(4-{3-[2-(2-{2-[(4-{3-[3-amino-6-(2-hydroxyphenyl)pyridazin-4-yl]-3,8-diazabicyclo[3.2.1]octan-8-yl}pyridin-2-yl)oxy]ethoxy}ethoxy)ethoxy]prop-1-yn-1-yl}-1,3-thiazol-5-yl)phenyl]ethyl]-4-hydroxy-1-[(2S)-3-methyl-2-(1-oxo-2,3-dihydro-1H-isoindol-2-yl)butanoyl]pyrrolidine-2-carboxamide] | ≥ 30 nM |  |
| Cc1ncsc1-c1ccc([C@H](C)NC(=O)[C@@H]2C[C@@H](O)CN2C(=O)[C@@H](c2cc(N3CCC(CN4CCC5(CC4)CC(N4CCO[C@H]([C@@H](C)n6cc(C#Cc7cc(-c8ccccc8O)nnc7N)cn6)C4)C5)CC3)no2)C(C)C)cc1 [Compound 98, (2S,4R)-1-[(2R)-2-{3-[4-({2-[(2S)-2-[(1R)-1-(4-{2-[3-amino-6-(2-hydroxyphenyl)pyridazin-4-yl]ethynyl}-1H-pyrazol-1-yl)ethyl]morpholin-4-yl]-7-azaspiro[3.5]nonan-7-yl}methyl)piperidin-1-yl]-1,2-oxazol-5-yl}-3-methylbutanoyl]-4-hydroxy-N-[(1S)-1-[4-(4-methyl-1,3-thiazol-5-yl)phenyl]ethyl]pyrrolidine-2-carboxamide] | < 2.5 nM | > 75% |
| Cc1ncsc1-c1ccc([C@H](C)NC(=O)[C@@H]2C[C@@H](O)CN2C(=O)[C@@H](c2cc(N3CCC(CN4CCC5(CC4)CC(N4CCO[C@@H](C#CC(C)n6cc(-c7cc(-c8ccccc8O)nnc7N)cn6)C4)C5)CC3)no2)C(C)C)cc1 (stereo partly drawn) [Compound 121, (2S,4R)-1-[(2R)-2-{3-[4-({2-[(2S)-2-(3-{4-[3-amino-6-(2-hydroxyphenyl)pyridazin-4-yl]-1H-pyrazol-1-yl}but-1-yn-1-yl)morpholin-4-yl]-7-azaspiro[3.5]nonan-7-yl}methyl)piperidin-1-yl]-1,2-oxazol-5-yl}-3-methylbutanoyl]-4-hydroxy-N-[(1S)-1-[4-(4-methyl-1,3-thiazol-5-yl)phenyl]ethyl]pyrrolidine-2-carboxamide] | < 2.5 nM | > 75% |
